One data set relates to Caco-2. Put plainly: Cellular uptake of [3H][Dmt1]DALDA. It is filed as in vitro ADME, human. As to conditions: estimated. How it is done:
The cellular uptake of [^3H][Dmt^1]DALDA was studied using a human intestinal epithelial cell line (Caco-2), and confirmed with SH-SY5Y (human neuroblastoma cell), HEK293 (human embryonic kidney cell) and CRFK cells (kidney epithelial cell). Monolayers of cells were grown on 12-well plates (5×10^5 cells/well) coated with collagen for 3 days. On day 4, cells were washed twice with pre-warmed HBSS, and then incubated with 0.2 ml of HBSS containing either 250 nM [^3H][Dmt^1]DALDA at 37° C. […] 4° C. for various times up to 1 h.
In a separate experiment, cells were incubated with a range of [Dmt^1]DALDA concentrations (1 μM-3 mM) for 1 h at 37° C. At the end of the incubation period, cells were washed 4 times with HBSS, and 0.2 ml of 0.1N NaOH with 1% SDS was added to each well. The cell contents were then transferred to scintillation vials and radioactivity counted. To distinguish between internalized radioactivity from surface-associated radioactivity, an acid-wash step was included. Prior to cell lysis, cells were incubated with 0.2 ml of 0.2 M acetic acid/0.05 M NaCl for 5 min on ice.

The subject of data set [1] is N2A cells. In words: Lipid peroxidation, HNE Michael adducts, after tBHP. In kind it is cell-based, murine. As to conditions: t-BHP 1 mM, 3 h. Here is the method:
Lipid peroxidation was evaluated by measuring HNE Michael adducts. 4-HNE is one of the major aldehydic products of the peroxidation of membrane polyunsaturated fatty acids. N2A cells were seeded on glass bottom dish 1 day before t-BHP treatment (1 mM, 3 h, 37° C., 5% CO2) in the presence of absence of SS-31 (10^−8 to 10^−10 M). Cells were then washed twice with PBS and fixed 30 min with 4% paraformaldehyde in PBS at RT and then washed 3 times with PBS. Cells were then permeabilized, treated with rabbit-anti-HNE antibody followed by the secondary antibody (goat anti-rabbit IgG conjugated to biotin). Cells were mounted in Vectashield and imaged using a Zeiss fluorescence microscope using an excitation wavelength of 460±20 nm and a longpass filter of 505 nm for emission.

The subject of data set [2] is islet cells isolated from mouse pancreas. Put plainly: Islet isolation with SS-31 in isolation buffers (TMRM; annexin V/PI flow cytometry). It is filed as cell-based. The following applies: SS-31 1 nM in all isolation buffers. How it is done:
Pancreas was harvested from mice and islet cells were prepared according standard procedures. In some studies, SS-31 (1 nM) was added to all isolation buffers used throughout the isolation procedure. Mitochondrial potential was measured using TMRM (red) and visualized by confocal microscopy.
Pancreas was harvested from mice and islet cells were prepared according standard procedures. In some studies, SS-31 (1 nM) was added to all isolation buffers used throughout the isolation procedure. Apoptosis was ascertained by flow cytometry using annexin V and necrosis by propidium iodide.
On the technique in general: Flow cytometry measures light scatter and fluorescence of single cells or particles in a stream.

In data set [3] the test system is N2A cells. In words: Mitochondrial potential (TMRM) after tBHP. It is filed as cell-based, murine. As to conditions: 0.1 mM t-BHP, 1 nM SS-31, 6 h. Here is the method: N2A cells in glass bottom dish were treated with 0.1 mM t-BHP, alone or with 1 nM SS-31, for 6 h. Cells were then loaded with 10 μm of dichlorofluorescin (ex/em=485/530) for 30 min at 37° C., 5% CO2. Then cells were subjected 3 times wash with HBSS and stained with 20 nM of Mitotracker TMRM (ex/em=550/575 nm) for 15 min at 37° C. and examined by confocal laser scanning microscopy.

The test system of data set [4] is G93A transgenic familial ALS mice. Put plainly: Motor performance by rotarod in ALS mice. It is filed as in vivo. The following applies: between day 100 and 130.
Data set [5] relates to N2A cells. In words: Caspase-9 activity (FLICA) after tBHP. In kind it is cell-based, murine. As to conditions: 50 μM tBHP, 12 h, 1 nM SS-31. How it is done: FIG. 21A-B. SS-31 prevented caspase activation in N2A cells treated with tBHP. […] (B)(a-c) N2A cells were treated with 50 μM tBHP for 12 h and stained with caspase-9 FLICA™ kit containing red fluorescent inhibitor SR-LEHD-FMK and Hoechst 33342.

In the next data set the test system is SH-SY5Y cells. Put plainly: Apoptosis by nuclear morphology (Hoechst 33342) after tBHP. In kind it is cell-based, human. Here is the method: FIG. 20A-20C. […] (A)(a-c; a′-c′) N2A cells were treated with 50 μM tBHP alone or with SS-31 for 12 h. Cells were stained with Hoechst 33342 for 20 min., fixed, and imaged by fluorescent microscopy. (a) Untreated cells show uniformly stained nuclei (a′). […] (c) Cells treated with tBHP and 1 nM SS-31 had less nuclear changes (c′). […] Apoptotic cells were counted using MetaMorph software. *P<0.01 compared to untreated cells; *P<0.01 compared to tBHP alone. […] SH-SY5Y cells were treated with 25 μM tBHP for 24 h. *P<0.01 compared to untreated cells; *P<0.01 compared to tBHP alone.
SH-SY5Y cells were grown on 96-well plates, treated with t-BHP (0.025 mM) in the absence or presence of SS-31 (10^−12M-10^−9M) at 37° C. for 24 h. All treatments were carried out in quadriplicates. Cells were then stained with […] Hoechst 33342 for 20 min, fixed with 4% paraformaldehyde, and imaged using a Zeiss fluorescent microscope (Axiovert 200M) equipped with the Zeiss Acroplan x20 objective. Nuclear morphology was evaluated using an excitation wavelength of 350±10 nm and a longpass filter of 400 nm for emission. All images were processed and analyzed using the MetaMorph software (Universal Imaging Corp., West Chester, Pa.). Uniformly stained nuclei were scored as healthy, viable neurons, while condensed or fragmented nuclei were scored as apoptotic.

The subject of a further data set is SN-4741 cells. Put plainly: MPP+ toxicity, apoptosis by Hoechst 33342. In kind it is cell-based. As to conditions: 50 μM MPP+, 1 nM SS-31, 48 h. Here is the method:
(A) SS-31 protects dopamine cells against MPP^+ toxicity. SN-4741 cells were treated with buffer, 50 μM MPP^+ or 50 μM MPP^+ and 1 nM SS-31, for 48 h, and the incidence of apoptosis was determined by fluorescent microscopy with Hoechst 33342.

Where a SMILES comes first, the peptide text is derived from it. [ ]: non-standard residue; d: D form. Dmt = Cc1cc(O)cc(C)c1C[C@H](N)C(=O)O

As to 2′,6′-Dmt-Arg-Phe-Lys-NH2 [SS-02], in the data set on Caco-2, the “intracellular concentration relative to extracellular concentration” value is listed as “approximately 50 times”.
On to `Cc1cc(O)cc(C)c1C[C@H](NC(=O)[C@H](N)CCCNC(=N)N)C(=O)N[C@@H](CCCCN)C(=O)N[C@@H](Cc1ccccc1)C(N)=O` [SS-31, D-Arg-2′6′-Dmt-Lys-Phe-NH2] (H-[dR][Dmt]KF-NH2; N-terminus assumed), for which the “lipid peroxidation (HNE adducts)” value in the data set on N2A cells [1] was “inhibited lipid peroxidation”. In data set [2], the “apoptosis (annexin V)” value is reported as “reduces apoptosis”, the “mitochondrial potential (TMRM)” value is given as “improves mitochondrial potential” and the viability result is given as “increases viability”. The “mitochondrial depolarization (TMRM fluorescence)” value in the data set on N2A cells [3] is on record as “prevented mitochondrial depolarization”. The “motor performance (rotarod)” value in data set [4] is “significantly improved”. Also, in the data set with N2A cells [5], the “cells showing caspase-9 staining” value was “reduced the number of cells showing caspase-9 staining”. Also, the “number of apoptotic cells” value with SH-SY5Y cells (25 μM tBHP, 24 h) is on record as “dose-dependently reduced”. For the same molecule, in the data set on SH-SY5Y cells (0.025 mM t-BHP, 1 nM SS-31, 24 h), the “apoptosis induced by a low dose of t-BHP” value was “prevents apoptosis”. Further, the “percent of apoptotic cells” value in the data set on SH-SY5Y cells (24 h, t-BHP 0.05 mM) is reported as “dose-dependently reduced”. Also, the “number of apoptotic cells” value in the data set with SN-4741 cells is listed as “reduced the number of apoptotic cells”.

The record behind these values is patent US9950026B2, “Methods for reducing oxidative damage” (Cornell Research Foundation, Inc., priority 2004, dated 2018).
